Test results from patent publication US10787423B2, “Piperazine and piperidine derivatives, their synthesis and use thereof in inhibiting VDAC oligomerization, apoptosis and mitochondria dysfunction” (THE NATIONAL INSTITUTE FOR BIOTECHNOLOGY IN THE NEGEV LTD., priority 2015, dated 2020).
pIC50: −log10 of the molar value. Read-outs that look alike come from different tables or passages of the source.

How the values were obtained:
purified rat VDAC1 = molecular target: T1, purified rat VDAC1 (Rattus norvegicus, UniProt Q9Z2L0); experiment: VDAC1 channel conductance in planar lipid bilayer; assay type: biochemical; details: for pIC50 / Max Inhibition (maximal reduction in channel conductance): planar lipid bilayer, measured at +10 mV and −10 mV
T1 construct: from tissue; host or cells: rat liver mitochondria
From the text: The direct interaction between VDAC and the compounds of general Formulae (I), (Ia), (Ib), (Ic), (Id), (II) and (IIa), especially the specific compounds of Formulae 1, 2, 3, 10 and 11, may be measured by assessing VDAC channel conductance, following its reconstitution into a planar lipid bilayer (PLB). The compounds of the general Formulae (I), (Ia), (Ib), (Ic), (Id), (II) and (IIa), interact with VDAC and reduce its channel conductance. To obtain quantitative parameters of this interaction and derive a dissociation constant, e.g. a microscale thermophoresis (MST) interaction assay may be performed. In this manner, dissociation values are derived from the curves showing the affinity of the compounds of the invention to VDAC.
Briefly, rat liver mitochondria (5 mg/ml) in 10 mM Tris-HCl, pH 7.2, were incubated with 2% LDAO at 0° C. for 20 min, followed by centrifugation (30 min, 14,000 g) and the obtained supernatant was loaded onto a dry celite:hydroxyapatite (2:1) column. VDAC1 was eluted with a solution containing 2% LDAO, 10 mM Tris-HCl, pH 7.2, 50 mM NaCl, and 20 to 22 mM NaH2PO4, with VDAC1 detection by Coomassie blue staining. The VDAC1-containing fractions were dialyzed against 10 mM Tris-HCl, pH 7.2, and subjected to a second chromatography step on a carboxymethyl-cellulose (CMC) column from which VDAC1 was eluted with a solution containing 10 mM Tris-HCl, pH 7.2, 0.1% LDAO and 500 mM NaCl, detected as above. The VDAC1-containing fractions were collected and used for VDAC1 channel conductance and MST assays.
The reconstitution of purified rat VDAC1 into a planar lipid bilayer (PLB) and subsequent single and multiple channel current recordings and data analysis were carried out as follows. Briefly, the PLB was prepared from soybean asolectin dissolved in n-decane (30 mg/ml). Purified VDAC1 (1 ng) was added to the chamber defined as the cis side containing 1 M NaCl, 10 mM Hepes, pH 7.4. Currents were recorded under voltage-clamp using a Bilayer Clamp BC-535B amplifier (Warner Instrument, Hamden, Conn.). The currents, measured with respect to the trans side of the membrane (ground), were low-pass-filtered at 1 kHz and digitized online using a Digidata1440-interface board and pClampex 10.2 software (Axon Instruments, Union City, Calif.).
VDAC1 was purified as described above in Methods (VDAC1 purification). Purified VDAC1 was reconstituted into a planar lipid bilayer (PLB) membrane and currents through VDAC1, in response to a voltage steps from 0 to +10 mV, from 0 to −10 mV, from 0 to +40 mV, and from 0 to −40 mV, were recorded before and 15 min after the addition of 20 μM of the compound of Formula 3 (VBIT-12).
Solid circles indicate conductance without VBIT-12, open circles with 20 μM VBIT-12.
Further, the VDAC1 channel conductance was measured with the increasing concentrations of VBIT-12, or of compound of Formula 1 (VBIT-4). Concentration dependence of VBIT-12 reducing VDAC1 channel conductance was measured at +10 my and at −10 mV.

HeLa cells = experiment: Selenite-induced cell death in HeLa cells, PI staining and flow cytometry; assay type: cell-based
Description: Cells, e.g. HeLa cells (2×10^5), untreated or treated with apoptosis-inducing reagents, were analyzed for apoptotic cell death using PI, annexin V-FITC and flow cytometer analysis. Cells were collected (1500×g for 10 min), washed, and resuspended in 200 μl binding buffer (10 mM HEPES/NaOH, pH 7.4, 140 mM NaCl, and 2.5 mM CaCl2). Annexin V-FITC was added according to the recommended Protocol (Enzo Life Sciences, Switzerland), and the cells were incubated in the dark for 15 min. Cells were then washed with binding buffer and resuspended in 200 μl binding buffer, to which PI was added immediately before flow cytometry analysis. At least 10,000 events were collected, recorded on a dot plot, and analyzed by the FACSCalibur™ flow cytometer software (BD Biosciences, Franklin Lakes, N.J.).
HeLa cells were incubated with varying concentrations (2-20 μM) of racemic compound of Formula 1 (VBIT-4) and of the enantiomers of compound of Formula 1 (VBIT-4-1 and VBIT-4-2) for 1 hour, and then with or without selenite (25 μM, 3 hours). Cells were harvested and assayed for apoptotic cell death, using PI staining and FACS analysis. The results shown in the FIG. 14b correspond to means±SD (n=3).
Cells (2.5 mg/ml) were washed with and resuspended in PBS, pH 8.3 and incubated with membrane-permeable cross-linker EGS (250 μM) at 30° C. for 15 min and then subjected to SDS-PAGE and immunoblotting using anti-VDAC1 antibodies. Several anti-VDAC1 antibody-labeled protein bands were obtained upon exposure to the apoptosis stimuli that are correspond to VDAC1 dimers, trimers, tetramers and multimers. Cell death as induced by selenite and inhibited by the compound of Formula 3 (VBIT-12) or compound of Formula 11 (DIV00781) is shown (FIG. 21B), with closed circles corresponding to the compound of Formula 3 and open circles corresponding to the compound of Formula 11. Cell death was analyzed using propidium iodide (PI) staining and flow cytometry.

SHSY5Y cells = experiment: 6-hydroxydopamine-induced cell toxicity, XTT cell viability; assay type: cell-based; details: for pIC50: Homo sapiens, SH-SY5Y, 24 h, read-out: IC50 (cell viability protection)
Description: SHSY5Y (obtained from ATCC) were grown at 37° C. under an atmosphere of 95% air and 5% CO2 in DMEM medium supplemented with 10% fetal bovine serum, 2 mM L-glutamine, 1000 U/ml penicillin, and 1 mg/ml streptomycin until 60-70% of confluence. Further, the cells were incubated with increasing concentrations of 6-hydroxydopamine. After 24 hours, and cells viability was assayed using the XTT (2,3-bis-(2-methoxy-4-nitro-5-sulfophenyl)-2H-tetrazolium-5-carboxanilide) method, according to the supplier instructions. […] The 50% decrease in cell survival was obtained at about 50 μM of 6-hydroxydopamine.
Cell viability as assayed following 24 h incubation with different concentrations of 6-hydroxydopamine in the absence (closed squares (▪)) or in the presence of VBIT-12 (15 μM, closed circles (●)) is shown.
Similarly, cells that were incubated with increasing concentrations of VBIT-12 in presence of either 30 or 50 μM of 6-hydroxydopamine that decreased cell viability by […], respectively, remained viable after 24 hours of the incubation. Cells viability is charted in FIG. 24C versus the concentrations of VBIT-12. Closed squares (▪) indicate control group without 6-hydroxydopamine, open circles (◯) indicates cells' viability when exposed to 30 μM of the 6-hydroxydopamine, and closed circles (●) indicate cells viability at 50 μM of the 6-hydroxydopamine.

T1 sequence (Q9Z2L0 whole entry): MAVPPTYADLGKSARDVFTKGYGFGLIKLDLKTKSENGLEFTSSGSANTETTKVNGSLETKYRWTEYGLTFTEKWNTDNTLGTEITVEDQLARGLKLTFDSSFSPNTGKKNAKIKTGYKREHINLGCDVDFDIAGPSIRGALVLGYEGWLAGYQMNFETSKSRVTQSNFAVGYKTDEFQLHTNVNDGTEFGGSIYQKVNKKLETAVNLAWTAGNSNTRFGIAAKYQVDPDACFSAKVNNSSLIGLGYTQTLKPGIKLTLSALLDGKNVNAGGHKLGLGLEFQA

| SMILES | pIC50 (purified rat VDAC1) | Max Inhibition (maximal reduction in channel conductance) (purified rat VDAC1) [%] | apoptotic cell death (HeLa cells; 2-20 μM 1 hour, then selenite 25 μM 3 hours) | decrease in maximal channel conductance relative to VBIT-4 (purified rat VDAC1) | VDAC1 conductance in multi-channel experiments as function of voltage (purified rat VDAC1; 20 μM) | VDAC1 channel conductance (purified rat VDAC1; 20 μM, 15 min after addition, voltage steps 0 to ±10 mV and ±40 mV) | affinity to VDAC1 relative to VBIT-4 (purified rat VDAC1; from concentration dependence of channel conductance) | protection against 6-hydroxydopamine-induced decreased cell viability (SHSY5Y cells; 15 μM VBIT-12, 24 h, different 6-hydroxydopamine concentrations) | pIC50 (SHSY5Y cells; 30 μM 6-hydroxydopamine) | pIC50 (SHSY5Y cells; 50 μM 6-hydroxydopamine) | cell death as induced by selenite (HeLa cells; 22 h with selenite 8 μM and increasing concentrations) |
| --- | --- | --- | --- | --- | --- | --- | --- | --- | --- | --- | --- |
| O=C(CC(CO)N1CCN(c2ccc(OC(F)(F)F)cc2)CC1)Nc1ccc(Cl)cc1 (racemic) [Formula 1, N-(4-chlorophenyl)-4-hydroxy-3-(4-(4-(trifluoromethoxy)phenyl)-piperazin-1-yl)butanamide] | 4.82 | 50 | Inhibit Apoptotic Cell Death | – | – | – | – | – | – | – | – |
| O=C(O)CNC(=O)C1(Nc2ccccc2)CCN(Cc2cccc3ccccc23)CC1 [Formula 3] | 5.30 | 80 | – | higher decrease in the maximal channel conductance | stabilizing VDAC1 at a low conductance state at all voltages tested | Channel conductance was reduced and the channel was stabilized in a low conducting state | higher affinity than VBIT-4 | protected against the reduction of cell survival by all 6-hydroxydopamine concentration used | ~6.00 | ~5.70 | inhibited |
